Measured values: US9463189B2 (BPV Holdings, LLC, priority 2007, dated 2016)
Counter-ions that a name gives are not always drawn.

Legend:
Assay type in all cases: in vivo, C57B1/6J mice
TGFβ-1 = TGFβ-1 levels in liver lysates of NASH mice
Description: (§1) Early Steatosis Model: C57B1/6J mice (22-39 days old) mice were used for the study. Mice were fed normal chow food (Lab Diet, 5P14Prolab Animal Diet, PMI Nutritional International, Brentwood, Mo., Cat# RMH 2500) or 58% high fat diet (HFD, 58 kcal % fat and corn starch with purple dye, Research Diets, New Brunswick, N.J., Cat# D12330 equivalent to Western diet) for 120-150 days. […] This group is referred to as the HFD-low body group in FIG. 1A (insulin & liver fat accumulation˜normal). On the other hand, one fifth of the mice gained 60-70% higher body weight (compared to normal chow fed mice) while on the same HFD diet (NASH group, very high insulin and liver fat) further shown in FIG. 1A. The majority of the mice (three fifths) gained body weight as expected on the HFD (30-40% higher than the normal chow fed mice) and is referred to as the DIO group (normal to moderately high insulin and liver fat accumulation) as shown in FIG. 1A. Control animals (n=5) representative of the HFD-low body weight and the NASH groups were sacrificed prior to starting the rest of the animals on treatment with the Compound 2 (5 or 10 mg/Kg/day). […]
(§2) Following 120-150 days on the HFD, mice in the NASH group were treated with Compound 2 (5 or 10 mg/Kg/day) or vehicle (10% Encapsin) for 42 days. […] Body weight and food intake was measured throughout the study.

NASH mice [1] = assay: Hepatic fibrosis, Trichrome staining of liver sections
Description: Early Steatosis Model: C57B1/6J mice (22-39 days old) mice were used for the study. Mice were fed normal chow food (Lab Diet, 5P14Prolab Animal Diet, PMI Nutritional International, Brentwood, Mo., Cat# RMH 2500) or 58% high fat diet (HFD, 58 kcal % fat and corn starch with purple dye, Research Diets, New Brunswick, N.J., Cat# D12330 equivalent to Western diet) for 120-150 days. […] This group is referred to as the HFD-low body group in FIG. 1A (insulin & liver fat accumulation˜normal). On the other hand, one fifth of the mice gained 60-70% higher body weight (compared to normal chow fed mice) while on the same HFD diet (NASH group, very high insulin and liver fat) further shown in FIG. 1A. […]
(§3) The development of NASH was further confirmed using histological analyses of liver. The sections were analyzed for 1) hepatic steatosis 2) necroinflammation, and 3) fibrosis. Histological analyses of hepatic steatosis was assessed by quantitative image analysis of Oil Red O stain in liver sections and defined as the percentage of Oil Red ‘O’ positive area relative to the total image area.
Following 120-150 days on the HFD, mice in the NASH group were treated with Compound 2 (5 or 10 mg/Kg/day) or vehicle (10% Encapsin) for 42 days. […] Body weight and food intake was measured throughout the study. […]

NASH mice [2] = assay: Hepatic steatosis / lipid accumulation in liver, Oil Red O stain image analysis
Description: Early Steatosis Model: C57B1/6J mice (22-39 days old) mice were used for the study. Mice were fed normal chow food (Lab Diet, 5P14Prolab Animal Diet, PMI Nutritional International, Brentwood, Mo., Cat# RMH 2500) or 58% high fat diet (HFD, 58 kcal % fat and corn starch with purple dye, Research Diets, New Brunswick, N.J., Cat# D12330 equivalent to Western diet) for 120-150 days. […] This group is referred to as the HFD-low body group in FIG. 1A (insulin & liver fat accumulation˜normal). On the other hand, one fifth of the mice gained 60-70% higher body weight (compared to normal chow fed mice) while on the same HFD diet (NASH group, very high insulin and liver fat) further shown in FIG. 1A. The majority of the mice (three fifths) gained body weight as expected on the HFD (30-40% higher than the normal chow fed mice) and is referred to as the DIO group (normal to moderately high insulin and liver fat accumulation) as shown in FIG. 1A. Control animals (n=5) representative of the HFD-low body weight and the NASH groups were sacrificed prior to starting the rest of the animals on treatment with the Compound 2 (5 or 10 mg/Kg/day). Liver, white adipose and muscle from the sacrificed mice were collected for histology performed on the liver tissue.
as §3
Following 120-150 days on the HFD, mice in the NASH group were treated with Compound 2 (5 or 10 mg/Kg/day) or vehicle (10% Encapsin) for 42 days. Fasting and post prandial (PP) blood draws were taken at the beginning of the study (compound treatment) to identify and confirm the NASH group and during the study to evaluate various pharmacological responses. Since the NASH mice are severely hyperinsulinemic compared to NC mice, glucose tolerance testing (GTT, measures peripheral insulin resistance) was performed to evaluate the effect of Compound 2 on improvement of peripheral insulin sensitivity. Treatment was administered for 42 days (separate experiments). Body weight and food intake was measured throughout the study.
Staining was prepared with Oil Red ‘O’ that stains fat deposits red on frozen tissues where positive staining indicates lipid accumulation. Trichrome staining was used to illuminate fibrosis; collagen deposits appear blue and positive staining indicates fibrosis.

[3] = Body weight loss in NASH mice; settings: oral administration, p<0.05 vs. vehicle
Description: as §1, §2

liver of NASH mice = assay: Liver gene expression by Affymetrix microarray in NASH mice; settings: liver mRNA, 10 mg/kg/day, 35 days
Protocol: Gene expression was analyzed using Affynmatrix microarray followed by GOBY software analyses. Data (Table 5, below) represent average fold change in gene expression in the Compound 2/vehicle group.
Gene expression was analyzed using Affynmatrix microarray followed by GOBY software analyses. Data (Table 6, below) represent average fold change in gene expression in the Compound 2/vehicle group.
Animals were placed in Surgivet/ANESCO ISOTECY chamber (Vetequip Incorporated, Waukesha, Wis.) filled with Isoflurane (1-chloro-2,2,2-trifluoroethyl difluoromethyl ether, CAS#26675-46-7), USP Liquid for Inhalation (Baxter, Deerfield, Ill., Cat #10019-360-40) for anesthetization. Cardiac blood is taken with BD 1 mL Syringe Tuberculin Slip Tip (Becton, Dickinson & Company, Franklin Lakes, N.J., Cat #309602) with B-D25G 5/8 needle (Becton Dickinson, Franklin Lakes, N.J., Cat #305122) and was saved into Microtainer brand tube with EDTA (Becton, Dickinson and Company, Cat #365973). The heart, liver, kidney, adipose (white and brown) and muscle were collected using fine forceps and fine scissors. Tissues were stored in aluminum foils and flash frozen in liquid nitrogen for further analyses. ˜100 mg of heart, liver, adipose (white) were saved in tubes containing 1 mL RNAlater RNA Stabilization Reagent (Qiagen, Valencia, Calif., Cat #76106) and flash frozen in liquid nitrogen for gene array analyses. The liver, muscle and adipose (white) were fixed in 10% Zinc Formalin (Fisher Diagnostics, Middletown, Va., Cat#032-065, CAS #50-00-0) for histology analyses. In addition, the liver and muscle were frozen in Cryomold Standard Disposable Specimen Mold 25 mm×20 mm×5 mm (Sakura Finetechnical U.S.A., Inc., Torrance, Calif., Cat #4557) with O.C.T Compound (Sakura Finetechnical U.S.A., Inc., Torrance, Calif., Cat #4583) and frozen on dry ice mixed with 2-Methylbutane (Isopentane) (Sigma-Aldrich, St. Louis, Mo., CAS #78-78-4, Cat #270342-2L.
Total RNA was extracted using the RNeasy mini protocol (Qiagen, Cat: 74106), gene array analyses was performed using Mouse Genome 430.2.0 Affymetrix CHIP and VAMPIRE analyses software at the Veterans Affair, UCSD core facility, UCSD, San Diego, Calif.

C[C@@H]1CN(Cc2ccc(OC(F)(F)F)cc2)C[C@H](C)N1S(=O)(=O)c1cccc2c1C[C@@H](C(=O)O)C2 [Compound 2, (S)-4-[cis-2,6-Dimethyl-4-(4-trifluoromethoxy-benzyl)-piperazine-1-sulfonyl]-indan-2-carboxylic acid tosylate]
decrement of TGFβ levels in the liver lysates (TGFβ-1; 10 mg/Kg/day, p<0.01, FIG. 3A): 49%
levels of inflammatory marker TGFβ-1 (TGFβ-1; oral administration, NASH mice, p<0.05 vs. vehicle): normalized levels
attenuation of progression of fibrosis, Trichrome staining of liver sections (NASH mice [1]; 10 mg/Kg/day, p<0.03, FIG. 3B): 41%
progression to fibrosis measured by histological presence of collagen deposits in the liver (NASH mice [1]; oral administration, NASH mice, summary): attenuated progression to fibrosis
fat accumulation in the livers of treated vs. non-treated NASH mice (NASH mice [2]; 42 days of 10 mg/kg/day): reduced fat accumulation
Percent Field Area, Lipid (stained oil deposits) (NASH mice [2]; HFD + Compound 2, 10 mg/kg, 42 days, liver sections, HFD + Vehicle 47.7% +/− 5.5): 16.0% +/− 7.6
Percent Field Area, Cytoplasm (NASH mice [2]; HFD + Compound 2, 10 mg/kg, 42 days, liver sections, HFD + Vehicle 91% +/− 2.4): 38.6% +/− 2.3
reduced lipid accumulation in the liver (NASH mice [2]; oral administration, NASH mice, p<0.03 vs. vehicle): 32%
weight loss [3]: increased weight loss
S100 A6 (inflammatory marker) gene expression vs. vehicle (liver of NASH mice): reduction
CD14 (Monocyte/Macrophage marker) gene expression, Fold change over vehicle (liver of NASH mice; 4 hours post dosing, fed state): −2 fold
GADD45 (Inflammatory marker) gene expression, Fold change over vehicle (liver of NASH mice; 4 hours post dosing, fed state): 8 fold
ICAM 1 (Inflammatory marker) gene expression, Fold change over vehicle (liver of NASH mice; 4 hours post dosing, fed state): −2.1 fold
MARCO (Monocyte/Macrophage marker) gene expression, Fold change over vehicle (liver of NASH mice; 4 hours post dosing, fed state): −2.5 fold
Orosomucoid 2 (Acute Phase Reactant Protein) gene expression, Fold change over vehicle (liver of NASH mice; 4 hours post dosing, fed state): −2.4 fold
Serum myeloid A1 (Acute Phase Reactant Protein) gene expression, Fold change over vehicle (liver of NASH mice; 4 hours post dosing, fed state): −1.9 fold
Serum myeloid A2 (Acute Phase Reactant Protein) gene expression, Fold change over vehicle (liver of NASH mice; 4 hours post dosing, fed state): −2.2 fold
CTGF gene expression, Fold change over vehicle (liver of NASH mice; 4 hours post dosing, fed state): Not changed
Col1a1 gene expression, Fold change over vehicle (liver of NASH mice; 4 hours post dosing, fed state): −6.3 fold
Col1a2 gene expression, Fold change over vehicle (liver of NASH mice; 4 hours post dosing, fed state): −3 fold
Col3a1 gene expression, Fold change over vehicle (liver of NASH mice; 4 hours post dosing, fed state): −3 fold
Col5a2 gene expression, Fold change over vehicle (liver of NASH mice; 4 hours post dosing, fed state): −2.2 fold
Col6a2 gene expression, Fold change over vehicle (liver of NASH mice; 4 hours post dosing, fed state): −8.9 fold
Fibronectin gene expression, Fold change over vehicle (liver of NASH mice; 4 hours post dosing, fed state): Not changed
Timp 1 gene expression, Fold change over vehicle (liver of NASH mice; 4 hours post dosing, fed state): −4.5 fold
Timp 2 gene expression, Fold change over vehicle (liver of NASH mice; 4 hours post dosing, fed state): Not changed
Vimentin gene expression, Fold change over vehicle (liver of NASH mice; 4 hours post dosing, fed state): −2.3 fold
